Results from article PMC8359378 (British Journal of Clinical Pharmacology, 2021).
“Also recorded” adds a separate entry of the source. Marks after values point to notes of the source that are not given here.

Columns and labels:
[1] = system: prothrombin time [PT], international normalised ratio [INR]; assay: prothrombin time; type: in vivo, human; conditions: any of the dose levels tested in Part A or Part B
healthy subjects = assay: safety and tolerability; type: in vivo, human
human FXIa = conditions: competitive and reversible inhibition; cited from earlier work
[2] = Part A, single dose 1 mg, fasted
[3] = Part A, single dose 5 mg, fasted
[4] = Part A, single dose 20 mg, fasted
[5] = Part A, single dose 80 mg, fasted
[6] = Part A, single dose 150 mg, fasted
[7] = Part A, single dose 300 mg, fasted
[8] = Part B, 80 mg QD for 14 days, fed
[9] = Part B, 150 mg QD for 14 days, fed
[10] = Part B, 250 mg QD for 14 days, fed

Q: Which “effect on INR” value [1] does the source give for `Nc1ccc(-c2nc([C@H]3CCc4cc(-c5cc(Cl)ccc5-n5cnnn5)cc(=O)n43)c(F)[nH]2)c(F)n1` [ONO‐7684] here?
A: The value was “did not significantly affect”.

Q: And the “effect on PT” value [1]?
A: Its value is “did not significantly affect”.

Q: And the “treatment‐related TEAE of lethargy (mild), subjects” value (healthy subjects; Part A, 5 mg group)?
A: The value was 16.7%.

Q: What about the “treatment‐related TEAE of headache (moderate), subjects” value (healthy subjects; Part A, 300 mg group) of the same compound?
A: The value was 16.7%.

Q: What about the “Abdominal pain upper TEAE, subjects” value (healthy subjects; [2]) of the same compound?
A: The value was 0 n (%).

Q: And the “All TEAEs, subjects” value (healthy subjects; [2])?
A: The value was 0 n (%).

Q: And the “Dizziness TEAE, subjects” value (healthy subjects; [2])?
A: The value was 0 n (%).

Q: And the “Gonorrhoea TEAE, subjects” value (healthy subjects; [2])?
A: The value was 0 n (%).

Q: What about the “Headache TEAE, subjects” value (healthy subjects; [2]) of the same compound?
A: Its value is 0 n (%).

Q: And the “Lethargy TEAE, subjects” value (healthy subjects; [2])?
A: Its value is 0 n (%).

Q: What about the “Nasopharyngitis TEAE, subjects” value (healthy subjects; [2]) of the same compound?
A: Its value is 0 n (%).

Q: And the “Nausea TEAE, subjects” value (healthy subjects; [2])?
A: Its value is 0 n (%).

Q: And the “Pain TEAE, subjects” value (healthy subjects; [2])?
A: Its value is 0 n (%).

Q: What about the “Skin laceration TEAE, subjects” value (healthy subjects; [2]) of the same compound?
A: Its value is 0 n (%).

Q: And the “Thrombocytopenia TEAE, subjects” value (healthy subjects; [2])?
A: The value was 0 n (%).

Q: What about the “Abdominal pain upper TEAE, subjects” value (healthy subjects; [3]) of the same compound?
A: The value was 0 n (%).

Q: What about the “All TEAEs, subjects” value (healthy subjects; [3]) of the same compound?
A: Its value is 1 (16.7) n (%).

Q: What about the “Dizziness TEAE, subjects” value (healthy subjects; [3]) of the same compound?
A: Its value is 0 n (%).

Q: What about the “Gonorrhoea TEAE, subjects” value (healthy subjects; [3]) of the same compound?
A: The value was 0 n (%).

Q: What about the “Headache TEAE, subjects” value (healthy subjects; [3]) of the same compound?
A: The value was 0 n (%).

Q: And the “Lethargy TEAE, subjects” value (healthy subjects; [3])?
A: Its value is 1 (16.7)^b n (%).

Q: And the “Nasopharyngitis TEAE, subjects” value (healthy subjects; [3])?
A: Its value is 1 (16.7) n (%).

Q: And the “Nausea TEAE, subjects” value (healthy subjects; [3])?
A: Its value is 0 n (%).

Q: And the “Pain TEAE, subjects” value (healthy subjects; [3])?
A: The value was 0 n (%).

Q: And the “Skin laceration TEAE, subjects” value (healthy subjects; [3])?
A: The value was 0 n (%).

Q: And the “Thrombocytopenia TEAE, subjects” value (healthy subjects; [3])?
A: The value was 0 n (%).

Q: And the “Abdominal pain upper TEAE, subjects” value (healthy subjects; [4])?
A: Its value is 1 (16.7) n (%).

Q: What about the “All TEAEs, subjects” value (healthy subjects; [4]) of the same compound?
A: Its value is 1 (16.7) n (%).

Q: What about the “Dizziness TEAE, subjects” value (healthy subjects; [4]) of the same compound?
A: The value was 1 (16.7) n (%).

Q: What about the “Gonorrhoea TEAE, subjects” value (healthy subjects; [4]) of the same compound?
A: Its value is 0 n (%).

Q: And the “Headache TEAE, subjects” value (healthy subjects; [4])?
A: Its value is 0 n (%).

Q: What about the “Lethargy TEAE, subjects” value (healthy subjects; [4]) of the same compound?
A: The value was 0 n (%).

Q: What about the “Nasopharyngitis TEAE, subjects” value (healthy subjects; [4]) of the same compound?
A: The value was 0 n (%).

Q: And the “Nausea TEAE, subjects” value (healthy subjects; [4])?
A: Its value is 1 (16.7) n (%).

Q: And the “Pain TEAE, subjects” value (healthy subjects; [4])?
A: The value was 0 n (%).

Q: What about the “Skin laceration TEAE, subjects” value (healthy subjects; [4]) of the same compound?
A: The value was 0 n (%).

Q: And the “Thrombocytopenia TEAE, subjects” value (healthy subjects; [4])?
A: Its value is 0 n (%).

Q: And the “Abdominal pain upper TEAE, subjects” value (healthy subjects; [5])?
A: Its value is 0 n (%).

Q: And the “All TEAEs, subjects” value (healthy subjects; [5])?
A: The value was 2 (33.3) n (%).

Q: What about the “Dizziness TEAE, subjects” value (healthy subjects; [5]) of the same compound?
A: The value was 0 n (%).

Q: What about the “Gonorrhoea TEAE, subjects” value (healthy subjects; [5]) of the same compound?
A: The value was 1 (16.7) n (%).

Q: What about the “Headache TEAE, subjects” value (healthy subjects; [5]) of the same compound?
A: Its value is 1 (16.7) n (%).

Q: And the “Lethargy TEAE, subjects” value (healthy subjects; [5])?
A: The value was 0 n (%).

Q: What about the “Nasopharyngitis TEAE, subjects” value (healthy subjects; [5]) of the same compound?
A: The value was 0 n (%).

Q: And the “Nausea TEAE, subjects” value (healthy subjects; [5])?
A: The value was 0 n (%).

Q: What about the “Pain TEAE, subjects” value (healthy subjects; [5]) of the same compound?
A: Its value is 0 n (%).

Q: And the “Skin laceration TEAE, subjects” value (healthy subjects; [5])?
A: The value was 0 n (%).

Q: What about the “Thrombocytopenia TEAE, subjects” value (healthy subjects; [5]) of the same compound?
A: The value was 0 n (%).

Q: And the “Abdominal pain upper TEAE, subjects” value (healthy subjects; Part A, single dose 80 mg, fed)?
A: Its value is 0 n (%).

Q: What about the “All TEAEs, subjects” value (healthy subjects; Part A, single dose 80 mg, fed) of the same compound?
A: Its value is 1 (16.7) n (%).

Q: And the “Dizziness TEAE, subjects” value (healthy subjects; Part A, single dose 80 mg, fed)?
A: Its value is 0 n (%).

Q: And the “Gonorrhoea TEAE, subjects” value (healthy subjects; Part A, single dose 80 mg, fed)?
A: Its value is 0 n (%).

Q: And the “Headache TEAE, subjects” value (healthy subjects; Part A, single dose 80 mg, fed)?
A: Its value is 1 (16.7) n (%).

Q: And the “Lethargy TEAE, subjects” value (healthy subjects; Part A, single dose 80 mg, fed)?
A: Its value is 0 n (%).

Q: What about the “Nasopharyngitis TEAE, subjects” value (healthy subjects; Part A, single dose 80 mg, fed) of the same compound?
A: The value was 0 n (%).

Q: What about the “Nausea TEAE, subjects” value (healthy subjects; Part A, single dose 80 mg, fed) of the same compound?
A: The value was 0 n (%).

Q: What about the “Pain TEAE, subjects” value (healthy subjects; Part A, single dose 80 mg, fed) of the same compound?
A: Its value is 0 n (%).

Q: What about the “Skin laceration TEAE, subjects” value (healthy subjects; Part A, single dose 80 mg, fed) of the same compound?
A: Its value is 0 n (%).

Q: And the “Thrombocytopenia TEAE, subjects” value (healthy subjects; Part A, single dose 80 mg, fed)?
A: The value was 0 n (%).

Q: And the “Abdominal pain upper TEAE, subjects” value (healthy subjects; [6])?
A: Its value is 0 n (%).

Q: What about the “All TEAEs, subjects” value (healthy subjects; [6]) of the same compound?
A: The value was 0 n (%).

Q: What about the “Dizziness TEAE, subjects” value (healthy subjects; [6]) of the same compound?
A: Its value is 0 n (%).

Q: And the “Gonorrhoea TEAE, subjects” value (healthy subjects; [6])?
A: Its value is 0 n (%).

Q: What about the “Headache TEAE, subjects” value (healthy subjects; [6]) of the same compound?
A: Its value is 0 n (%).

Q: And the “Lethargy TEAE, subjects” value (healthy subjects; [6])?
A: The value was 0 n (%).

Q: And the “Nasopharyngitis TEAE, subjects” value (healthy subjects; [6])?
A: Its value is 0 n (%).

Q: And the “Nausea TEAE, subjects” value (healthy subjects; [6])?
A: Its value is 0 n (%).

Q: And the “Pain TEAE, subjects” value (healthy subjects; [6])?
A: The value was 0 n (%).

Q: And the “Skin laceration TEAE, subjects” value (healthy subjects; [6])?
A: The value was 0 n (%).

Q: And the “Thrombocytopenia TEAE, subjects” value (healthy subjects; [6])?
A: Its value is 0 n (%).

Q: And the “Abdominal pain upper TEAE, subjects” value (healthy subjects; [7])?
A: Its value is 0 n (%).

Q: And the “All TEAEs, subjects” value (healthy subjects; [7])?
A: The value was 2 (33.3) n (%).

Q: What about the “Dizziness TEAE, subjects” value (healthy subjects; [7]) of the same compound?
A: Its value is 0 n (%).

Q: And the “Gonorrhoea TEAE, subjects” value (healthy subjects; [7])?
A: The value was 0 n (%).

Q: And the “Headache TEAE, subjects” value (healthy subjects; [7])?
A: The value was 2 (33.3)^a n (%).

Q: And the “Lethargy TEAE, subjects” value (healthy subjects; [7])?
A: The value was 0 n (%).

Q: What about the “Nasopharyngitis TEAE, subjects” value (healthy subjects; [7]) of the same compound?
A: Its value is 0 n (%).

Q: What about the “Nausea TEAE, subjects” value (healthy subjects; [7]) of the same compound?
A: Its value is 0 n (%).

Q: What about the “Pain TEAE, subjects” value (healthy subjects; [7]) of the same compound?
A: The value was 0 n (%).

Q: What about the “Skin laceration TEAE, subjects” value (healthy subjects; [7]) of the same compound?
A: Its value is 0 n (%).

Q: And the “Thrombocytopenia TEAE, subjects” value (healthy subjects; [7])?
A: The value was 1 (16.7) n (%).

Q: And the “All TEAEs, subjects” value (healthy subjects; [8])?
A: The value was 2 (33.3) n (%).

Q: What about the “Bleeding time prolonged TEAE, subjects” value (healthy subjects; [8]) of the same compound?
A: The value was 0 n (%).

Q: What about the “Dizziness TEAE, subjects” value (healthy subjects; [8]) of the same compound?
A: Its value is 1 (16.7) n (%).

Q: And the “Headache TEAE, subjects” value (healthy subjects; [8])?
A: The value was 1 (16.7) n (%).

Q: And the “Muscle twitching TEAE, subjects” value (healthy subjects; [8])?
A: Its value is 1 (16.7) n (%).

Q: And the “All TEAEs, subjects” value (healthy subjects; [9])?
A: The value was “No TEAEs”.

Q: And the “Bleeding time prolonged TEAE, subjects” value (healthy subjects; [9])?
A: The value was 0 n (%).

Q: What about the “Dizziness TEAE, subjects” value (healthy subjects; [9]) of the same compound?
A: Its value is 0 n (%).

Q: What about the “Headache TEAE, subjects” value (healthy subjects; [9]) of the same compound?
A: Its value is 0 n (%).

Q: What about the “Muscle twitching TEAE, subjects” value (healthy subjects; [9]) of the same compound?
A: Its value is 0 n (%).

Q: What about the “All TEAEs, subjects” value (healthy subjects; Part B, 150 mg QD for 14 days, fed, listed as ONO 7684) of the same compound?
A: Its value is 0 n (%).

Q: And the “All TEAEs, subjects” value (healthy subjects; [10])?
A: The value was “No TEAEs”.

Q: And the “Bleeding time prolonged TEAE, subjects” value (healthy subjects; [10])?
A: The value was 0 n (%).

Q: What about the “Dizziness TEAE, subjects” value (healthy subjects; [10]) of the same compound?
A: The value was 0 n (%).

Q: What about the “Headache TEAE, subjects” value (healthy subjects; [10]) of the same compound?
A: The value was 0 n (%).

Q: What about the “Muscle twitching TEAE, subjects” value (healthy subjects; [10]) of the same compound?
A: The value was 0 n (%).

Q: What about the “All TEAEs, subjects” value (healthy subjects; Part B, 250 mg QD for 14 days, fed, listed as ONO 7684) of the same compound?
A: Its value is 0 n (%).

Q: What about the bleeding risk (healthy subjects; Parts A and B) of the same compound?
A: Its bleeding risk is “no evidence to suggest a bleeding risk; also recorded: no evidence of a bleeding risk”.

Q: What about the “severe or serious TEAEs, TEAEs leading to discontinuation” value (healthy subjects; Parts A and B) of the same compound?
A: Its value is “no severe or serious TEAEs”.

Q: What about the tolerability (healthy subjects; all dose levels, single and repeated doses) of the same compound?
A: The tolerability was “well tolerated at all dose levels tested”.

Q: And the Ki (human FXIa)?
A: Its Ki is 2 nM.
